In patent US10246712B2, “Genetic or pharmacological reduction of PERK enhances cortical- and hippocampus-dependent cognitive function” (Carmel-Haifa University Economic Corp. Ltd, priority 2015, dated 2019):

Tests used:
p-eIF2α = experiment: Immunoblot of p-eIF2α levels in rat insular cortex (IC); type: in vivo; conditions: 1 μl, 100 nM stereotactic injection to the IC, compared to vehicle; n=15; data not shown
Experimental: For virus infusions, rats were first anesthetized with Ketamine (120 mg/kg) and Xylazine (6 mg/kg) and placed into a stereotactic frame (Steolting Europe, Dublin—Ireland) (Using a 32-gauge stainless steel injector attached to a stereotactic infusion pump, rats received 1 μl of lentivirus encoding PERK shRNA or lentivirus harboring a scrambled sequence over 10 min into the insular cortex (anteroposterior, +1.2 mm relative to bregma; lateral, ±5.5 mm; ventral, −6.0 mm) according to the atlas of Paxinos, G. & Watson, C. (2006). The injector was lets in place for 5 min before and after infusion to minimize fluid retraction. The rats were allowed at least 7 days to recover from the surgery before any behavior experiments were conducted.
The rats were cannulated as described in Barki-Harrington et al. (2009). Briefly, the rats were anesthetized by administration of equithesin (0.3 ml/100 g), comprising 2.12% (w/v) MgSO4, 10% (v/v) ethanol, 39.1% (v/v) propyleneglycol, 0.98% (w/v) sodium pentobarbital, and 4.2% (w/v) chloral hydrate. […]
(§1) At the end of the behavioral procedure, the brains were removed, and snap-frozen in liquid nitrogen. […] Protein content was determined with the BCA Protein Assay Kit (GE Healthcare). […]

ATF4 = experiment: Immunoblot of ATF4 protein levels in rat insular cortex (IC); type: in vivo; conditions: 1 μl, 100 nM injection to the IC; n=16; data not shown
Experimental: The rats were cannulated as described in Barki-Harrington et al. (2009). Briefly, the rats were anesthetized by administration of equithesin (0.3 ml/100 g), comprising 2.12% (w/v) MgSO4, 10% (v/v) ethanol, 39.1% (v/v) propyleneglycol, 0.98% (w/v) sodium pentobarbital, and 4.2% (w/v) chloral hydrate. They were restrained in a stereotactic frame (Steolting Europe, Dublin-Ireland) and stainless steel guide cannulae (23-gauge) were bilaterally implanted into the insular cortex, angled at (with reference to bregma), anteroposterior=+1.2 mm, lateral±5.5 mm, and ventral 5.0 mm (1 mm ahead of injecting cannula). Two skull screws were inserted into the skull, and acrylic dental cement was applied to secure the cannulae in position. […]
as §1
Samples were prepared in SDS sample buffer, subjected to 7.5-10% SDS-PAGE and Western blot analysis. […] The immunoblots were quantified with a CCD camera and Quantity One software (Bio-Rad, USA). Each sample was measured relative to the background. Phosphorylation levels were calculated as the ratio between chemiluminescence values of the antibody directed against the phosphoproteins and those of the antibody directed against the phosphorylation state independent forms of the proteins.

Question: How did the “reduction in p-eIF2α levels” value (p-eIF2α) turn out when `Cn1cc(-c2ccc3c(c2)CCN3C(=O)Cc2cccc(C(F)(F)F)c2)c2c(N)ncnc21` [GSK2606414, 7-methyl-5-(1-{[3-(trifluoromethyl)phenyl]acetyl}-2,3-dihydro-1H-indol-5-yl)-7H-pyrrolo[2,3-d]pyrimidin-4-amine] was run?
Answer: Its value is 40%.

Question: What about the “reduction in ATF4 protein levels” value (ATF4) of the same compound?
Answer: Its value is 30%.
